Test results as given in PMC9551276, “Design, synthesis and biological evaluation of novel orthosteric-allosteric ligands of the cannabinoid receptor type 2 (CB2R)” (Frontiers in Chemistry, 2022).
Several values for one entry are separate records, joined by “and”; a condition that tells them apart may be missing. Identical values can stand only once.

How the values were obtained:
[1] = target: T1, hCB2R (Homo sapiens, UniProt P34972); experiment: [3H]CP55,940 radioligand displacement, CHO-K1 hCB2R membranes; type: binding; conditions: for hCB2R E min (% CP55,940) ± S.E.M: % [3H]CP55,940 bound, 1 nM radioligand, 2 h; for Effect on [3H]CP55,940 bound to hCB2R: [3H]CP55,940 displacement
T1 sequence (P34972 whole entry): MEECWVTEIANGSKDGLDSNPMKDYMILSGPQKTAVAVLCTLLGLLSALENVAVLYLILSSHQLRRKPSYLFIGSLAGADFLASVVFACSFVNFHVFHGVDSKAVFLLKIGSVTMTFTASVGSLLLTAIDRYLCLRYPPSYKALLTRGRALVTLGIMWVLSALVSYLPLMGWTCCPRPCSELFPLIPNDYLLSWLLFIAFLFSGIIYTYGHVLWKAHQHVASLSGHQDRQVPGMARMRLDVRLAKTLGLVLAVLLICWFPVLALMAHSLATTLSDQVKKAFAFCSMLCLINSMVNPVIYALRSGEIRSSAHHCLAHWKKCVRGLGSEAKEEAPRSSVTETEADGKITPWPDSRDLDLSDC
Experimental: CHO-K1 cells were thawed, diluted in Tris buffer (50 mM Tris [pH 7.4]) and homogenized in a 1 ml hand-held homogenizer. hCB1R and hCB2R CHO-K1 cell membranes were collected by cavitation in a pressure cell, and sedimented by ultracentrifugation. Pellets were resuspended in TME buffer (50 mM Tris, 5 mM MgCl2, 1 mM EDTA [pH 7.4]), and protein concentration was measured via the Bradford method according to the manufacturer’s directions (Bio-Rad Laboratories, Mississauga, ON). […] Radioligand binding began with the addition of CHO-K1 cell membranes (25 µg protein per sample). […] Brandel GF/B filter paper was soaked with wash buffer at 4 °C for at least 24 h. Each filter paper was washed 6 times with a 1.2 ml aliquot of Tris-binding buffer (pH 7.4), then air-dried and submerged in 5 ml of scintillation fluid (Ultima Gold XR, PerkinElmer). Liquid scintillation spectrometry was used to quantify radioactivity.

[2] = target: T1, hCB2R; experiment: DiscoveRx HitHunter inhibition of FSK-stimulated cAMP accumulation; type: cell-based
Experimental: Inhibition of FSK-stimulated cAMP accumulation was measured using the DiscoveRx HitHunter assay.

[3] = target: T2, hCB1R (Homo sapiens, UniProt P21554); experiment: [3H]CP55,940 radioligand displacement, CHO-K1 hCB1R membranes; type: binding; conditions: % [3H]CP55,940 bound, 1 nM radioligand, 2 h
T2 construct: expressed in transfected cells; host or cells: CHO-K1 (ATCC CCL-61) stably expressing hCB1R; membranes
T2 sequence (P21554 whole entry): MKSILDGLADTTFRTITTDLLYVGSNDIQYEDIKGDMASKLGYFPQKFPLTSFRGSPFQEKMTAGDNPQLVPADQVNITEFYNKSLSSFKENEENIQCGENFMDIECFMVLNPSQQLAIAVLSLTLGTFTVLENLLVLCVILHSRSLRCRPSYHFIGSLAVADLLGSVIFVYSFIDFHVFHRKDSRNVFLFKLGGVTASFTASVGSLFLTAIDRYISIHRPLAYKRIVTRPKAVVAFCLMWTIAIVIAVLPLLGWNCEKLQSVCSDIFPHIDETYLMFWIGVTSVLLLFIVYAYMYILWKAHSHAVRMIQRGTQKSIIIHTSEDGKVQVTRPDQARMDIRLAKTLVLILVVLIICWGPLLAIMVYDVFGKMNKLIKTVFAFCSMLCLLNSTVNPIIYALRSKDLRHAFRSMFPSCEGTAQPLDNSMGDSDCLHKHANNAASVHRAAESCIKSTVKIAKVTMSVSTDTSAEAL
Experimental: CHO-K1 cells were thawed, diluted in Tris buffer (50 mM Tris [pH 7.4]) and homogenized in a 1 ml hand-held homogenizer. hCB1R and hCB2R CHO-K1 cell membranes were collected by cavitation in a pressure cell, and sedimented by ultracentrifugation. Pellets were resuspended in TME buffer (50 mM Tris, 5 mM MgCl2, 1 mM EDTA [pH 7.4]), and protein concentration was measured via the Bradford method according to the manufacturer’s directions (Bio-Rad Laboratories, Mississauga, ON). […] Radioligand binding began with the addition of CHO-K1 cell membranes (25 µg protein per sample). Assays were performed for 120 min at 37°C and stopped by the addition of ice-cold Tris binding buffer (pH 7.4), followed by vacuum filtration using a 24-well sampling manifold (Brandel Cell Harvester; Brandel Inc., Gaithersburg, MD, United States ). Brandel GF/B filter paper was soaked with wash buffer at 4 °C for at least 24 h. Each filter paper was washed 6 times with a 1.2 ml aliquot of Tris-binding buffer (pH 7.4), then air-dried and submerged in 5 ml of scintillation fluid (Ultima Gold XR, PerkinElmer). Liquid scintillation spectrometry was used to quantify radioactivity.

[4] = target: T1, hCB2R; experiment: DiscoveRx PathHunter βarrestin2 recruitment; type: cell-based
Experimental: βarrestin2 recruitment was quantified using the DiscoveRx PathHunter® assay. […] Detection solution was added to cells (DiscoveRx), and cells were incubated for 60 min at room temperature. Chemiluminescence was measured on a Cytation5 plate reader (top read, gain 200, integration time 10,000 ms).

[5] = test system: human microglial cells (HMC3); experiment: IL-6 and IL-10 release (ELISA) in LPS/TNFα-stimulated HMC3 cells; type: cell-based
Experimental: The concentrations of pro-inflammatory (IL-6) and anti-inflammatory (IL-10) interleukins were determined by performing specific ELISA assays (MyBioSource, San Diego, CA, United States ) on collected culture media. Human microglial cells (HMC3) were exposed to pretreatment with test compounds for 1 h followed by stimulation with LPS (10 μg/ml)/TNFα (50 ng/ml) for 24 h. In competition experiments, the CB2R antagonist (SR144528, 1 μM) or the CB2R positive allosteric modulator (EC21a 1 or 10 μM) were administered 15 min before agonist administration.

[6] = CHO-K1 hCB2R, 10 µM FSK, 90 min
[7] = CHO-K1 hCB2R, 10 µM FSK, 90 min, read-out: Inhibition of cAMP EC50 (95% C.I.)
[8] = CHO-K1 hCB2R, 90 min, read-out: βarrestin2 recruitment EC50 (95% C.I.)

Structure (SMILES) | IC50 [1] [nM] | hCB2R E min (% CP55,940) ± S.E.M [1] | Effect on [3H]CP55,940 bound to hCB2R [1] | Response in inhibition of FSK-stimulated cAMP accumulation ([2]; CHO-K1 hCB2R) | Inhibition of cAMP E max (% CP55,940) ± S.E.M [2, 6] | EC50 ([2]; Inhibition of cAMP EC50 (95% C.I.), CHO-K1 hCB2R, 10 µM FSK, 90 min) [nM] | EC50 ([2]; Inhibition of cAMP EC50 (95% C.I.), co-administration, EC21a concentration-response in the presence of 10 nM LV62, 10 µM FSK, 90 min) [nM] | hCB1R E min (% CP55,940) ± S.E.M [3] | EC50 [4] [nM] | Response in βarrestin2 recruitment ([4]; CHO-K1 hCB2R) | βarrestin2 recruitment E max (% CP55,940) ± S.E.M ([4]; CHO-K1 hCB2R, 90 min) | Effect of co-administered EC21a on JR64a anti-inflammatory activity (IL-6 release) ([5]; EC21a at equimolar or higher doses, LPS/TNFα) | Effect of equimolar EC21a on LV62 anti-inflammatory activity ([5]; LV62 1 or 10 μM with EC21a 1:1, LPS/TNFα 24 h) | EC50 [2, 7] [nM] | melting point | EC50 [4, 8] [nM] | EC50 [2] [nM]
Cc1c(Br)cn(Cc2ccc(F)cc2)c(=O)c1NC(=O)C1CCCCCC1 [EC21a, reference compound] | 36 | 115 ± 7.9 % CP55,940 | increased | no response was detected | 2.5 ± 0.53 % CP55,940 | > 10000 | 4.3 | 103 ± 2.5 % CP55,940 | > 10000 | no response was detected | 1.4 ± 0.96 % CP55,940 | no effects on JR64a anti-inflammatory activity | enhanced LV62 anti-inflammatory activity |  |  |  | 
Cc1c(Br)cn(CCCc2cn(CCCCC(=O)NC3CCC(NC(=O)c4cc5cccnc5n(Cc5ccc(F)cc5)c4=O)CC3)nn2)c(=O)c1NC(=O)C1CCCCCC1 (stereo not shown) [JR14a, N-(4-(5-(4-(3-(5-bromo-3-(cycloheptanecarboxamido)-4-methyl-2-oxopyridin-1(2H)-yl)propyl)-1H-1,2,3-triazol-1-yl)pentanamido)cyclohexyl)-1-(4-fluorobenzyl)-2-oxo-1,2-dihydro-1,8-naphthyridine-3-carboxamide] | 1.8 | 59 ± 12.3 % CP55,940 |  | modest partial agonist activity | 41 ± 5.7 % CP55,940 |  |  | 98 ± 2.5 % CP55,940 |  |  | 39 ± 0.93 % CP55,940 |  |  | 150 | 108 °C (dec.) | 25 | 
Cc1c(Br)cn(Cc2cn(CCCCC(=O)NC3CCC(NC(=O)c4cc5cccnc5n(Cc5ccc(F)cc5)c4=O)CC3)nn2)c(=O)c1NC(=O)C1CCCCCC1 (stereo not shown) [JR16a, N-(4-(5-(4-((5-bromo-3-(cycloheptanecarboxamido)-4-methyl-2-oxopyridin-1(2H)-yl)methyl)-1H-1,2,3-triazol-1-yl)pentanamido)cyclohexyl)-1-(4-fluorobenzyl)-2-oxo-1,2-dihydro-1,8-naphthyridine-3-carboxamide] |  |  |  |  | 36 ± 8.6 % CP55,940 |  |  |  |  |  | 27 ± 4.2 % CP55,940 |  |  | 350 | 113 °C (dec.) |  | 
Cc1c(Br)cn(CCCc2cn(CCCCCn3c(=O)c(C(=O)NC4CCC(C)CC4)cc4cccnc43)nn2)c(=O)c1NC(=O)C1CCCCCC1 (stereo not shown) [JR22a, 1-(5-(4-(3-(5-bromo-3-(cycloheptanecarboxamido)-4-methyl-2-oxopyridin-1(2H)-yl)propyl)-1H-1,2,3-triazol-1-yl)pentyl)-N-(4-methylcyclohexyl)-2-oxo-1,2-dihydro-1,8-naphthyridine-3-carboxamide] |  |  |  |  | 38 ± 5.5 % CP55,940 |  |  |  | > 10000 |  | 33 ± 3.1 % CP55,940 |  |  |  | 114 °C (dec.) |  | 62
Cc1c(Br)cn(Cc2cn(CCCCCn3c(=O)c(C(=O)NC4CCC(C)CC4)cc4cccnc43)nn2)c(=O)c1NC(=O)C1CCCCCC1 (stereo not shown) [JR26a, 1-(5-(4-((5-bromo-3-(cycloheptanecarboxamido)-4-methyl-2-oxopyridin-1(2H)-yl)methyl)-1H-1,2,3-triazol-1-yl)pentyl)-N-(4-methylcyclohexyl) -2-oxo-1,2-dihydro-1,8-naphthyridine-3-carboxamide] |  |  |  |  | 41 ± 5.1 % CP55,940 |  |  |  |  |  | 39 ± 6.1 % CP55,940 |  |  | 110 | 116 °C (dec.) | > 10000 | 
Cc1c(Br)cn(CCOCCn2c(=O)c(C(=O)NC3CCC(C)CC3)cc3cccnc32)c(=O)c1NC(=O)C1CCCCCC1 (stereo not shown) [JR58a, 1-(2-(2-(5-bromo-3-(cycloheptanecarboxamido)-4-methyl-2-oxopyridin-1(2H)-yl)ethoxy)ethyl)-N-(4-methylcyclohexyl)-2-oxo-1,2-dihydro-1,8-naphthyridine-3-carboxamide] |  |  |  |  | 45 ± 2.9 % CP55,940 |  |  |  | > 10000 |  | 51 ± 2.8 % CP55,940 |  |  |  | 110 °C (dec.) |  | 270
Cc1c(Br)cn(CCCCOCCCCn2c(=O)c(C(=O)NC3CCC(C)CC3)cc3cccnc32)c(=O)c1NC(=O)C1CCCCCC1 (stereo not shown) [JR60a, 1-(4-(4-(5-bromo-3-(cycloheptanecarboxamido)-4-methyl-2-oxopyridin-1(2H)-yl)butoxy)butyl)-N-(4-methylcyclohexyl)-2-oxo-1,2-dihydro-1,8-naphthyridine-3-carboxamide] |  |  |  |  | 46 ± 4.4 % CP55,940 |  |  |  | > 10000 |  | 36 ± 9.2 % CP55,940 |  |  |  | 118 °C (dec.) |  | 770
Cc1c(Br)cn(CCCCCn2c(=O)c(C(=O)NC3CCC(C)CC3)cc3cccnc32)c(=O)c1NC(=O)C1CCCCCC1 (stereo not shown) [JR61a, 1-(5-(5-bromo-3-(cycloheptanecarboxamido)-4-methyl-2-oxopyridin-1(2H)-yl)pentyl)-N-(4-methylcyclohexyl)-2-oxo-1,2-dihydro-1,8-naphthyridine-3-carboxamide] |  |  |  |  | 46 ± 1.7 % CP55,940 |  |  |  | > 10000 |  | 34 ± 2.2 % CP55,940 |  |  |  | 118 °C (dec.) |  | 420
CC1CCC(NC(=O)c2cc3cccnc3n(CCCCCO)c2=O)CC1 (stereo not shown) [LV62, reference compound] | 0.65 | 16 ± 11.9 % CP55,940 | fully displaced |  | 110 ± 8.8 % CP55,940 and 110 ± 5.3 % CP55,940 |  |  | 106 ± 3.6 % CP55,940 |  |  | 65 ± 1.4 % CP55,940 |  |  |  |  |  | 58
